# Legend:
# CYP3A4 = CYP3A4 (Homo sapiens, UniProt P08684); assay: Two-step luminescent P450 screen of luciferin derivatives; settings: result in words
# luciferase = assay: No-enzyme control: activity of luciferase towards the luciferin derivative (background luminescence); settings: on a BMG luminometer; minus P450
# Method: The reactions (Table 1) were assembled by first adding the water and 1 M BisTris solutions in individual 0.5 ml microfuge tubes, then adding the other components except for the GST #3 solution. Finally, the GST #3 (Figure 12) solution was added to the reactions, the resulting solution was mixed, and the time of addition noted. […]
# The GST #3 addition was performed last and the solutions were mixed immediately after addition of GST #3. […] After mixing, the light produced by the solution was measured using a Turner TD 20/20 luminometer.
# After assembly, the enzyme stock solutions were diluted 1:10 into 10 mM HEPES, pH 7.5 and the following additions were made to the reactions.
# A 5 µl sample of the luciferol DMF solution was added to each of the reactions above and a timer was started upon the addition of the first luciferol/DMF solution to reaction 1. All reactions were kept at room temperature.
# After incubating 5 minutes at room temperature, the light produced by these samples was measured using a Turner TD 20 luminometer.
# To initiate the conversions, 5 µl of luciferol solution was added to reactions […], 6-9, and 11-15, and 10 µl of luciferol was added to reactions 5 and 10 and the tubes mixed after that addition. Immediately after luciferol addition to reaction 1, a timer was started and the time of luciferol addition to the other tubes noted. After mixing, reaction 11-15 were placed at 37°C.
# After incubating 10 minutes at room temperature, the light produced by these samples was read using a Turner TD 20 luminometer (Table 18).
# To initiate Step 1, 45 µl of enzyme and buffer were added to each well.
# Solution A and Solution B are components of the NADPH Regeneration System (V9510, Promega Corp., Madison WI). […] Solution B contains 40 units/ml glucose-6-phosphate dehydrogenase in 5 mM citrate pH 5.5.
# [1] = test system: CYP3A subfamily, CYP3A4, CYP3A5 and CYP3A7; assay: Two-step luminescent P450 screen of luciferin derivatives, selectivity for the CYP3A subfamily; assay type: biochemical, human; settings: result in words
# Method: (§1) P450s are Supersomes™ purchased from Discovery Labware (BD/Gentest). […] HLM is human liver microsomes.
# (§2) 1X substrate concentration: 50 µM.
# CYP4F12 = molecular target: T1, CYP4F12 (Homo sapiens, UniProt Q9HCS2); assay: Two-step luminescent P450 screen of luciferin derivatives; assay type: biochemical; settings: result in words
# T1 construct: purchased Discovery Labware (BD/Gentest); host or cells: insect cell expression system (membrane fractions)
# T1 sequence (Q9HCS2 1-524): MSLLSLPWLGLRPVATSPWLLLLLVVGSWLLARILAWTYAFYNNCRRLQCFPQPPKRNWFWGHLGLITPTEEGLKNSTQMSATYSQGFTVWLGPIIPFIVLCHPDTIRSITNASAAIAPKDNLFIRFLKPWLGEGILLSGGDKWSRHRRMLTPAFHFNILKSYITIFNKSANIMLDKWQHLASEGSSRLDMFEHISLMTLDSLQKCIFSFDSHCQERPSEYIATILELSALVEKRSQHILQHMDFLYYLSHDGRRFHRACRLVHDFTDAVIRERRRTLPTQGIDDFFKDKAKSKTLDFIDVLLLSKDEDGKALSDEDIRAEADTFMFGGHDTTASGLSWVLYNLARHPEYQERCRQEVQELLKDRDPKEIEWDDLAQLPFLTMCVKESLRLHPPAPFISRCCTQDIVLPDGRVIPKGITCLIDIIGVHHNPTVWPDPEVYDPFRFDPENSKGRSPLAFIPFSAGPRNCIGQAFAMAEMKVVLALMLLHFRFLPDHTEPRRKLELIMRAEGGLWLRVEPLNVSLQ
# Method: as §1, §2
# CYP2C19 = molecular target: T2, CYP2C19 (Homo sapiens, UniProt P33261); assay: as above; assay type: biochemical; settings: for P450 activity / selectivity with the derivative as substrate: result in words
# T2 construct: purchased Discovery Labware (BD/Gentest); host or cells: insect cell expression system (membrane fractions)
# Method: as §1, §2
# (§3) For Figure 20, 1 or 5 picomoles of recombinant CYP2D6 or CYP2C19 membrane fractions from an insect cell expression system (SupersomesTM, Discovery Labware) were incubated at 37°C for 60 minutes with 200 µM D-luciferin 6' methyl ether (luciferin-ME) in 50 mM (CYP2C19) or 100 mM (CYP2D6) KPO4 (pH 7.4) with an NADPH regenerating system (as described above) in a volume of 50 µl. […] For Figure 20, the panel of human P450s was screened as described above.
# CYP4A11 = molecular target: T3, CYP4A11 (Homo sapiens, UniProt Q02928); assay: as above; assay type: biochemical; settings: result in words
# T3 construct: purchased Discovery Labware (BD/Gentest); host or cells: insect cell expression system (membrane fractions)
# T3 sequence (Q02928 5-519): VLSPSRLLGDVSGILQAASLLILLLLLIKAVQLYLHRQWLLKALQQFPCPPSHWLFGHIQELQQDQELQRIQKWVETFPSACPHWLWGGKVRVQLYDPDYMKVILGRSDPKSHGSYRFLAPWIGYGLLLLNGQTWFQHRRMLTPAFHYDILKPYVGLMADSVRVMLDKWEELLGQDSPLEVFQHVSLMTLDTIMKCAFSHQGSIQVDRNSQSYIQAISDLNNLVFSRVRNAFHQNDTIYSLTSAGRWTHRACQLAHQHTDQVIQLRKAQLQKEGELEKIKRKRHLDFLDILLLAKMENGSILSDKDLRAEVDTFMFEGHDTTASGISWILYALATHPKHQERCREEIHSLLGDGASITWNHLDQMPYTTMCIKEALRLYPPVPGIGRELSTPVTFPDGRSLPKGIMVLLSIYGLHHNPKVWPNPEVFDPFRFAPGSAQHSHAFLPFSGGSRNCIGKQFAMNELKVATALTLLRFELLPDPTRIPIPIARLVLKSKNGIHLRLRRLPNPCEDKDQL
# Method: as §1, §2
# CYP2D6 = molecular target: T4, CYP2D6 (Homo sapiens, UniProt P10635); assay: as above; assay type: biochemical; settings: for P450 activity / selectivity with the derivative as substrate: result in words
# T4 construct: purchased Discovery Labware (BD/Gentest); host or cells: insect cell expression system (membrane fractions)
# Method: as §1, §2, §3
# CYP1A2 = molecular target: T5, CYP1A2 (Homo sapiens, UniProt P05177); assay: as above; assay type: biochemical; settings: 50 µM substrate, 1 pmole P450; result in words
# T5 construct: purchased Discovery Labware (BD/Gentest); host or cells: insect cell expression system (membrane fractions)
# T5 sequence (P05177 2-516 limits assumed): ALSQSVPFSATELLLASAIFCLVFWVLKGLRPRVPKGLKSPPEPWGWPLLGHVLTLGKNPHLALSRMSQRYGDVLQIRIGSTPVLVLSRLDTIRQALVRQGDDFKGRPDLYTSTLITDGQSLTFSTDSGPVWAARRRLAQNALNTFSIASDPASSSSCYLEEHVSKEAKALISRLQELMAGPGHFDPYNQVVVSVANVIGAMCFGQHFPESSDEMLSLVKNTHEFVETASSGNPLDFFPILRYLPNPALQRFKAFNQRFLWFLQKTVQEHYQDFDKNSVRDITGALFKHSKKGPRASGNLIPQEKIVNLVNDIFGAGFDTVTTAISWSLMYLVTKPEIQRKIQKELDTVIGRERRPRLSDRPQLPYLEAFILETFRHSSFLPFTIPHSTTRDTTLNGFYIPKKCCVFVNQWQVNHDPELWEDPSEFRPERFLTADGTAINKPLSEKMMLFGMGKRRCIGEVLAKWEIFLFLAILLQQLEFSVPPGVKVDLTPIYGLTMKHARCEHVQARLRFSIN
# Method: as §1, §2
# CYP1A1 = molecular target: T6, CYP1A1 (Homo sapiens, UniProt P04798); assay: as above; settings: 50 µM substrate, 1 pmole P450, 37°C 30 minutes; result in words
# T6 sequence (P04798 1-512): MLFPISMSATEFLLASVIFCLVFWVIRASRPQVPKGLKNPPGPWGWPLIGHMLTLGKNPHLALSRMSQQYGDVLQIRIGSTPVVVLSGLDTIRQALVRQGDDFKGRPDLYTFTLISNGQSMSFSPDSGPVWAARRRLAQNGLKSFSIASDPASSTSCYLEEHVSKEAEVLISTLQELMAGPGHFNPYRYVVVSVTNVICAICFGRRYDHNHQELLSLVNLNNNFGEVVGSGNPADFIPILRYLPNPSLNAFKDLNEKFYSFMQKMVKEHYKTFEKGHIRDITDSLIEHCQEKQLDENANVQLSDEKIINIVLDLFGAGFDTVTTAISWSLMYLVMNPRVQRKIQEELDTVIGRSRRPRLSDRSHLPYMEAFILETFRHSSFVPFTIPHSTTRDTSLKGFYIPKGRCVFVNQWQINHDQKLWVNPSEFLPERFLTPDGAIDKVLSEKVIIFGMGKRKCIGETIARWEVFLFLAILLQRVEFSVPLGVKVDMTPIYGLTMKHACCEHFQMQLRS
# T2 sequence (P33261 whole entry): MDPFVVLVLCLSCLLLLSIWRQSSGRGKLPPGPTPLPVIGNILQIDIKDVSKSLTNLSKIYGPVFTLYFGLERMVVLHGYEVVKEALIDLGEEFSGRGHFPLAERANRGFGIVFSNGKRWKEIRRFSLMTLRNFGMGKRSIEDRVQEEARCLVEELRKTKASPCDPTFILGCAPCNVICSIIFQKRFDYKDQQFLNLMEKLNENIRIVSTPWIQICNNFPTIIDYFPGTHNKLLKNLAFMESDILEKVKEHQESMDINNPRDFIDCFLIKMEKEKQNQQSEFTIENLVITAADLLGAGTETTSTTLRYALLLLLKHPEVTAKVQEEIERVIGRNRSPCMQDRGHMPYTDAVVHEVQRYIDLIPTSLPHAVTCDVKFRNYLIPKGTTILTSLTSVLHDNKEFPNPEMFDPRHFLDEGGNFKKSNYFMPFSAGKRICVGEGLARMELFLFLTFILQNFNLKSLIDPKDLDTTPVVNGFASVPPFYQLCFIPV
# Chain of CYP3A4 (P08684 2-503 limits assumed): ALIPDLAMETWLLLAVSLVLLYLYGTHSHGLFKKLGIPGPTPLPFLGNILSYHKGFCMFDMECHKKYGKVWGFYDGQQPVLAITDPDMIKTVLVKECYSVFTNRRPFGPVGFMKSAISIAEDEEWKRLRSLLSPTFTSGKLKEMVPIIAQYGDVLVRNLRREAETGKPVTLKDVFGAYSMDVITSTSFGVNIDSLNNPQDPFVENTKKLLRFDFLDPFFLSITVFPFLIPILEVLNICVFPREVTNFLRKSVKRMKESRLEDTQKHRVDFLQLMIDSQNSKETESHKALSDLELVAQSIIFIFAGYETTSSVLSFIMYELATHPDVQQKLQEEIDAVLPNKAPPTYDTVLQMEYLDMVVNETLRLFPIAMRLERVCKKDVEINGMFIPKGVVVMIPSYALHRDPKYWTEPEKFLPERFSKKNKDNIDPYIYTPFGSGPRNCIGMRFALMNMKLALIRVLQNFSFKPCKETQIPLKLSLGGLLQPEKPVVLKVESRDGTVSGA
# T4 sequence (P10635 whole entry): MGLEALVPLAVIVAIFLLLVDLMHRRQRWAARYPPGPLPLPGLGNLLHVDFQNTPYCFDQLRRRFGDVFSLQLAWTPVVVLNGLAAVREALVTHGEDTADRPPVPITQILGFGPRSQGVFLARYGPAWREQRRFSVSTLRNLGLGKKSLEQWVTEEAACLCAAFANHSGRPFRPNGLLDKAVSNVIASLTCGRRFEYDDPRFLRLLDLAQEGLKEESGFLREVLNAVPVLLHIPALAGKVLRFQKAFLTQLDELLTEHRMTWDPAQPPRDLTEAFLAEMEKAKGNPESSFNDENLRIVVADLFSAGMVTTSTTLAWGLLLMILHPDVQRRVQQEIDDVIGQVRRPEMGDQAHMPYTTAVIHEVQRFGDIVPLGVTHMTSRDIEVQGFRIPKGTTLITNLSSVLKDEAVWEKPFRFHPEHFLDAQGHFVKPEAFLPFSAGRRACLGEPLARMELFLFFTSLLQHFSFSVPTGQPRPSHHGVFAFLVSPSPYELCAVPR
compound,measurement,setting,value
"O=C(O)[C@H]1CSC(c2nc3ccc(OCc4c(F)c(F)c(F)c(F)c4F)cc3s2)=N1 [6'-(2,3,4,5,6-pentafluorobenzyloxy)-luciferin]",P450 activity / selectivity with the derivative as substrate,CYP3A4,substantial activity
same,background luminescence,luciferase,about 900 RLU
same,selectivity for three members of the CYP3A subfamily,[1],selective
same,P450 activity / cross reactivity with the derivative as substrate,CYP4F12,did not show substantial cross reactivity
COC(=O)[C@H]1CSC(c2nc3ccccc3s2)=N1 [carboxyl methyl ester of deoxyluciferin],P450 activity / selectivity with the derivative as substrate,CYP2C19,substantial activity with CYP2C 19 and strong selectivity
"O=C(O)[C@H]1CSC(c2nc3ccc(OCc4cccc(CN5CCN(c6ccccc6)CC5)c4)cc3s2)=N1 [LucPPXE, Luciferin 3-(4-phenylpiperazin-1-yl)methylbenzyl ether]",P450 activity / selectivity with the derivative as substrate,CYP3A4,substantial activity
same,competition at the substrate binding sites on CYP3A4,CYP3A4,competitive at 2 of the 3 substrate binding sites
same,sensitivity of the reaction with 3A4 to DMSO,CYP3A4,insensitive to DMSO at commonly used concentrations
same,background luminescence,luciferase,about 2200 RLU
same,selectivity for three members of the CYP3A subfamily,[1],selective
same,P450 activity / cross reactivity with the derivative as substrate,CYP4F12; listed as 6'(3-((4-phenylpipenzin-1-yl))methyl)benzyloxy) luciferin,did not cross react
"Cc1cc(C)c(COc2ccc3nc(C4=N[C@@H](C(=O)O)CS4)sc3c2)c(C)c1 [6'(2,4,6-trimethylbenzyloxy)-luciferin, Luciferin 6-(2,4,6-trimethylbenzyl) ether]",P450 activity / selectivity with the derivative as substrate,CYP3A4,substantial activity
same,selectivity for three members of the CYP3A subfamily,[1],selective
same,P450 activity / cross reactivity with the derivative as substrate,CYP4F12,did not show substantial cross reactivity
"COc1ccc2cc(C3=N[C@@H](C(=O)O)CS3)ccc2c1 [Naphthylluciferin 6-methyl ether, naphthyl luciferin methyl ether]",P450 activity / selectivity with the derivative as substrate,CYP4A11,substrate
2-(7-methyoxy-quinoxalin-2-yl)-4-5-dihydro-thiazole-4-carboxylic acid [quinoxalylluciferin 6-methyl ether],P450 activity / selectivity with the derivative as substrate,CYP4A11,substrate
"COC(=O)[C@H]1CSC(c2nc3ccc(OC)cc3s2)=N1 [carboxyl ester of luciferin-ME, carboxyl methyl ester of luciferin-ME]",P450 activity / selectivity with the derivative as substrate,CYP2C19,reacted strongly
same,P450 activity / selectivity with the derivative as substrate,CYP2D6,substantially increased
"O=C(OCc1cccnc1)[C@H]1CSC(c2nc3ccccc3s2)=N1 [carboxyl picolinyl ester of luciferin-H, m-picolinyl ester of luciferin-H]",P450 activity / selectivity with the derivative as substrate,CYP1A2,showed preference
same,P450 activity / selectivity with the derivative as substrate,CYP1A1,showed preference
same,"signal when the esterase was not added, relative to the plus esterase signal","CYP2C19; purified recombinant CYP2C19 substantially free of carboxylesterases, 2 step assay",less than 10%
same,P450 activity / selectivity with the derivative as substrate,CYP2C19,showed preference
COc1ccc2nc(C3=NC(C(=O)OCc4cccnc4)CS3)sc2c1 (centres unmarked) [m-picolinyl ester of luciferin methyl ether],P450 activity / selectivity with the derivative as substrate,CYP1A2,showed a preference
same,P450 activity / selectivity with the derivative as substrate,CYP1A1,showed a preference
same,"signal when the esterase was not added, relative to the plus esterase signal","CYP2D6; purified recombinant CYP2D6 substantially free of carboxylesterases, 2 step assay",less than 10%
same,P450 activity / selectivity with the derivative as substrate,CYP2D6,showed a preference
